Where “and” joins values, the source holds several entries; their conditions need not be identical. Identical values can stand only once. Inconclusive results and toxic doses are left out.
Tested on: L1210 leukemia ip in BDF1 mice, survival T/C
Assay: NCI In Vivo Anticancer Drug Screen. Data for tumor model L1210 Leukemia (intraperitoneal) in B6D2F1 (BDF1) mice
Details: higher = longer survival
Outline: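 Value reflects the ratio of survival in compound-treated mice to survival in vehicle-treated controls, with both groups carrying the same transplanted tumor.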

[1] = endpoint: mean survival time, dose: 100.0 mg/kg/injection, schedule: Q01DX001 (ip), vehicle: other
[2] = endpoint: mean survival time, dose: 200.0 mg/kg/injection, schedule: Q01DX001 (ip), vehicle: other
[3] = endpoint: mean survival time, dose: 400.0 mg/kg/injection, schedule: Q01DX001 (ip), vehicle: other
[4] = endpoint: mean survival time, dose: 100.0 mg/kg/injection, schedule: Q01DX009 (ip), vehicle: saline
[5] = endpoint: mean survival time, dose: 200.0 mg/kg/injection, schedule: Q01DX009 (ip), vehicle: saline
[6] = endpoint: mean survival time, dose: 400.0 mg/kg/injection, schedule: Q01DX009 (ip), vehicle: saline
[7] = endpoint: mean survival time, dose: 100.0 mg/kg/injection, schedule: Q01DX009 (ip), vehicle: Klucel (hydroxypropylcellulose) (HPC)
[8] = endpoint: mean survival time, dose: 200.0 mg/kg/injection, schedule: Q01DX009 (ip), vehicle: Klucel (hydroxypropylcellulose) (HPC)
[9] = endpoint: mean survival time, dose: 400.0 mg/kg/injection, schedule: Q01DX009 (ip), vehicle: Klucel (hydroxypropylcellulose) (HPC)
[10] = endpoint: mean survival time, dose: 100.0 mg/kg/injection, schedule: Q04DX003 (ip), vehicle: Klucel (hydroxypropylcellulose) (HPC)
[11] = endpoint: mean survival time, dose: 200.0 mg/kg/injection, schedule: Q04DX003 (ip), vehicle: Klucel (hydroxypropylcellulose) (HPC)
[12] = endpoint: mean survival time, dose: 400.0 mg/kg/injection, schedule: Q04DX003 (ip), vehicle: Klucel (hydroxypropylcellulose) (HPC)

With CCOC(=O)CN(c1ccccc1-c1ccccc1)S(=O)(=O)c1ccc(C)cc1 the T/C (endpoint: mean survival time, dose: 50.0 mg/kg/injection, schedule: Q01DX001 (ip), vehicle: other) was 92 % of control, the T/C [1] was 89 % of control and the T/C [2] was 101 % of control. For the same compound, the T/C [3] was 101 % of control.

With CCCCC/C(=N/NC(N)=O)C(OC)OC the T/C [1] was 92 % of control, the T/C [2] was 92 % of control and the T/C [3] was 97 % of control.

Cc1cc(=O)n(-c2ccccc2)n1C was tested, and the T/C (endpoint: mean survival time, dose: 100.0 mg/kg/injection, schedule: Q04DX003 (ip), vehicle: saline) was 104 % of control, the T/C (endpoint: mean survival time, dose: 200.0 mg/kg/injection, schedule: Q04DX003 (ip), vehicle: saline) was 106 % of control and the T/C (endpoint: mean survival time, dose: 400.0 mg/kg/injection, schedule: Q04DX003 (ip), vehicle: saline) was 106 % of control.

For N#C[C@H](OC1OC(COC2OC(CO)C(O)C(O)C2O)C(O)C(O)C1O)c1ccccc1 (some centres not stated), the T/C [4] was 102 % of control, the T/C [5] was 101 % of control and the T/C [6] was 98 % of control. For the same compound, the T/C (endpoint: median survival time, dose: 25.0 mg/kg/injection, schedule: Q01DX009 (ip), vehicle: water) was 101 % of control, the T/C (endpoint: median survival time, dose: 25.0 mg/kg/injection, schedule: Q01DX Z (ip), vehicle: water) was 100 % of control and the T/C (endpoint: median survival time, dose: 50.0 mg/kg/injection, schedule: Q01DX009 (ip), vehicle: water) was 92 % of control. The T/C (endpoint: median survival time, dose: 50.0 mg/kg/injection, schedule: Q01DX Z (ip), vehicle: water) was 87 % of control, the T/C (endpoint: median survival time, dose: 100.0 mg/kg/injection, schedule: Q01DX009 (ip), vehicle: water) was 51 % of control and the T/C (endpoint: median survival time, dose: 200.0 mg/kg/injection, schedule: Q01DX009 (ip), vehicle: water) was 51 % of control. For the same compound, the T/C (endpoint: median survival time, dose: 400.0 mg/kg/injection, schedule: Q01DX009 (ip), vehicle: water) was 93 % of control and the T/C (endpoint: median survival time, dose: 400.0 mg/kg/injection, schedule: Q01DX Z (ip), vehicle: water) was 87 % of control.

In the case of Cc1ccc([N+](=O)[O-])cc1NC(=O)Nc1nccs1, the T/C [7] is reported as 104 % of control, the T/C [8] is reported as 101 % of control and the T/C [9] is reported as 102 % of control.

In the case of COc1ccc(-n2c(=O)c(N=Nc3ccccc3OC)c(O)n(-c3ccc(C)cc3)c2=S)cc1, the T/C (endpoint: mean survival time, dose: 50.0 mg/kg/injection, schedule: Q01DX001 (ip), vehicle: Klucel (hydroxypropylcellulose) (HPC)) is reported as 92 % of control, the T/C (endpoint: mean survival time, dose: 100.0 mg/kg/injection, schedule: Q01DX001 (ip), vehicle: Klucel (hydroxypropylcellulose) (HPC)) is reported as 89 % of control and the T/C (endpoint: mean survival time, dose: 200.0 mg/kg/injection, schedule: Q01DX001 (ip), vehicle: Klucel (hydroxypropylcellulose) (HPC)) is reported as 91 % of control.

In the case of NC(N)=NCCS(=O)(=O)Nc1ccc(Nc2c3ccccc3nc3cc([N+](=O)[O-])ccc23)cc1, the T/C (endpoint: mean survival time, dose: 0.75 mg/kg/injection, schedule: Q01DX009 (ip), vehicle: water) is reported as 121 % of control, the T/C (endpoint: mean survival time, dose: 6.0 mg/kg/injection, schedule: Q01DX009 (ip), vehicle: water) is reported as 163 % of control and the T/C (endpoint: mean survival time, dose: 25.0 mg/kg/injection, schedule: Q04DX003 (ip), vehicle: water) is reported as 157 % of control. The T/C (endpoint: mean survival time, dose: 50.0 mg/kg/injection, schedule: Q04DX003 (ip), vehicle: water) was 175 % of control.

In the case of Cc1ccc(NC(=O)c2ccccc2C(=O)O)cc1Cl, the T/C [7] is reported as 93 % of control, the T/C [10] is reported as 96 % of control and the T/C [8] is reported as 98 % of control. The T/C [11] was 93 % of control, the T/C [9] was 95 % of control and the T/C [12] was 96 % of control.

In the case of CC[C@H](CC[C@@H](C)[C@H]1CC[C@H]2[C@@H]3CC[C@H]4C[C@@H](O)CC[C@]4(C)[C@H]3CC[C@]12C)C(C)C, the T/C (endpoint: mean survival time, dose: 100.0 mg/kg/injection, schedule: Q01DX001 (ip), vehicle: water) is reported as 90 % of control, the T/C (endpoint: mean survival time, dose: 200.0 mg/kg/injection, schedule: Q01DX001 (ip), vehicle: water) is reported as 91 % of control and the T/C (endpoint: mean survival time, dose: 400.0 mg/kg/injection, schedule: Q01DX001 (ip), vehicle: water) is reported as 93 % of control.

For C[CH2][Ge]([CH2]C)[CH2]C.C[CH2][Ge]([CH2]C)[CH2]C, the T/C (endpoint: mean survival time, dose: 100.0 mg/kg/injection, schedule: Q01DX001 (ip), vehicle: saline with Tween-80) was 94 % of control, the T/C (endpoint: mean survival time, dose: 100.0 mg/kg/injection, schedule: Q04DX002 (ip), vehicle: saline with Tween-80) was 95 % of control and the T/C (endpoint: mean survival time, dose: 200.0 mg/kg/injection, schedule: Q01DX001 (ip), vehicle: saline with Tween-80) was 90 % of control. For the same compound, the T/C (endpoint: mean survival time, dose: 200.0 mg/kg/injection, schedule: Q04DX002 (ip), vehicle: saline with Tween-80) was 95 % of control and the T/C (endpoint: mean survival time, dose: 400.0 mg/kg/injection, schedule: Q04DX002 (ip), vehicle: saline with Tween-80) was 92 % of control.

With COc1ccc(CC(=O)NCCc2ccc3cc(OC)c(OC)cc3c2)cc1OC the T/C [4] was 90 % of control, the T/C [5] was 86 % of control and the T/C [6] was 88 % of control.

COc1cc2ccnc(/C=N\NC(N)=S)c2cc1OC was tested, and the T/C (endpoint: mean survival time, dose: 50.0 mg/kg/injection, schedule: Q01DX001 (ip), vehicle: saline) was 93 % of control, the T/C (endpoint: mean survival time, dose: 100.0 mg/kg/injection, schedule: Q01DX001 (ip), vehicle: saline) was 98 % of control and the T/C (endpoint: mean survival time, dose: 200.0 mg/kg/injection, schedule: Q01DX001 (ip), vehicle: saline) was 93 % of control.

In the case of C#CC(O)(c1ccccc1)c1ccc(N2CCOCC2)cc1 (configuration not stated), the T/C [10] is reported as 96 % of control, the T/C [11] is reported as 96 % of control and the T/C [12] is reported as 96 % of control.

With CCCCCCC(=O)N(CC(C)C)CC(C)C the T/C (endpoint: mean survival time, dose: 100.0 mg/kg/injection, schedule: Q01DX001 (ip), vehicle: carboxymethylcellulose (CMC)) was 102 % of control, the T/C (endpoint: mean survival time, dose: 100.0 mg/kg/injection, schedule: Q01DX009 (ip), vehicle: carboxymethylcellulose (CMC)) was 93 % of control and 106 % of control and the T/C (endpoint: mean survival time, dose: 100.0 mg/kg/injection, schedule: Q04DX002 (ip), vehicle: carboxymethylcellulose (CMC)) was 97 % of control. For the same compound, the T/C (endpoint: mean survival time, dose: 100.0 mg/kg/injection, schedule: Q04DX003 (ip), vehicle: carboxymethylcellulose (CMC)) was 109 % of control, the T/C (endpoint: mean survival time, dose: 200.0 mg/kg/injection, schedule: Q01DX001 (ip), vehicle: carboxymethylcellulose (CMC)) was 100 % of control and the T/C (endpoint: mean survival time, dose: 200.0 mg/kg/injection, schedule: Q01DX009 (ip), vehicle: carboxymethylcellulose (CMC)) was 104 % of control and 90 % of control. The T/C (endpoint: mean survival time, dose: 200.0 mg/kg/injection, schedule: Q04DX002 (ip), vehicle: carboxymethylcellulose (CMC)) was 102 % of control, the T/C (endpoint: mean survival time, dose: 200.0 mg/kg/injection, schedule: Q04DX003 (ip), vehicle: carboxymethylcellulose (CMC)) was 102 % of control and the T/C (endpoint: mean survival time, dose: 400.0 mg/kg/injection, schedule: Q01DX001 (ip), vehicle: carboxymethylcellulose (CMC)) was 90 % of control. For the same compound, the T/C (endpoint: mean survival time, dose: 400.0 mg/kg/injection, schedule: Q04DX002 (ip), vehicle: carboxymethylcellulose (CMC)) was 100 % of control and the T/C (endpoint: mean survival time, dose: 400.0 mg/kg/injection, schedule: Q04DX003 (ip), vehicle: carboxymethylcellulose (CMC)) was 100 % of control.

With O=C1NC(=O)C2(CCc3ccccc32)N1 (configuration not stated) the T/C (endpoint: mean survival time, dose: 50.0 mg/kg/injection, schedule: Q01DX009 (ip), vehicle: Klucel (hydroxypropylcellulose) (HPC)) was 105 % of control, the T/C [7] was 100 % of control and the T/C [10] was 108 % of control. For the same compound, the T/C [8] was 98 % of control, the T/C [11] was 100 % of control and the T/C [12] was 94 % of control.

With O=S(=O)(Cc1ccccc1)CS(=O)(=O)Cc1ccccc1 the T/C (endpoint: mean survival time, dose: 75.0 mg/kg/injection, schedule: Q04DX003 (ip), vehicle: saline) was 92 % of control, the T/C (endpoint: mean survival time, dose: 100.0 mg/kg/injection, schedule: Q04DX003 (ip), vehicle: saline with Tween-80) was 106 % of control and the T/C (endpoint: mean survival time, dose: 150.0 mg/kg/injection, schedule: Q04DX003 (ip), vehicle: saline) was 90 % of control. The T/C (endpoint: mean survival time, dose: 200.0 mg/kg/injection, schedule: Q04DX003 (ip), vehicle: saline with Tween-80) was 112 % of control, the T/C (endpoint: mean survival time, dose: 300.0 mg/kg/injection, schedule: Q04DX003 (ip), vehicle: saline) was 87 % of control and the T/C (endpoint: mean survival time, dose: 400.0 mg/kg/injection, schedule: Q04DX003 (ip), vehicle: saline with Tween-80) was 98 % of control.
